Values joined by “and” are separate entries in the source; they are usually repeats but may differ in a detail not shown here. Equal entries are not always repeated.
System: 1483 human head and neck squamous cell carcinoma (HNSCC) xenograft
Assay: HN1483 tumor model: paw tumor volume of treated mice
Type: in vivo, nude mice
Settings: for Paw volume, paw / Tumor vol.: individual mice; for Tumor vol.: paw minus BKG. 0.10
[1] = Celecoxib/40 ppm, Day 17 Mar. 16, 2001
[2] = Celecoxib/40 ppm, Day 21 Mar. 20, 2001
[3] = Celecoxib/40 ppm, Day 24 Mar. 23, 2001
[4] = Celecoxib/40 ppm, Day 31 Apr. 2, 2001
[5] = Celecoxib/40 ppm, Day 31 Mar. 30, 2001
[6] = Celecoxib/160 ppm, Day 17 Mar. 16, 2001
[7] = Celecoxib/160 ppm, Day 21 Mar. 20, 2001
[8] = Celecoxib/160 ppm, Day 24 Mar. 23, 2001
[9] = Celecoxib/160 ppm, Day 31 Apr. 2, 2001
[10] = Celecoxib/160 ppm, Day 31 Mar. 30, 2001

Q: Which results are given for `Cc1ccc(-c2cc(C(F)(F)F)nn2-c2ccc(S(N)(=O)=O)cc2)cc1` [Celecoxib, celecoxib, reference compound]?
A: Paw volume, paw (Celecoxib/40 ppm, Day 14 Mar. 13, 2001): 0.28 (2×) and 0.25 (2×) and 0.24 (2×) and 0.29 and 0.27; Tumor vol. Average (Celecoxib/40 ppm, Day 17 Mar. 16, 2001, group average): 0.17; Paw volume, paw [1]: 0.3 and 0.29 (2×) and 0.22 and 0.32 and 0.27 and 0.25 (2×); Tumor vol. [1]: 0.20 and 0.19 (2×) and 0.12 and 0.22 and 0.17 and 0.15 (2×); Tumor vol. Average (Celecoxib/40 ppm, Day 21 Mar. 20, 2001, group average): 0.22; Paw volume, paw [2]: 0.38 (2×) and 0.23 and 0.36 and 0.28 (2×) and 0.39 and 0.31; Tumor vol. [2]: 0.28 (3×) and 0.13 and 0.18 (2×) and 0.29 and 0.21; Tumor vol. Average (Celecoxib/40 ppm, Day 24 Mar. 23, 2001, group average): 0.23; Paw volume, paw [3]: 0.37 and 0.32 and 0.23 and 0.44 and 0.28 and 0.29 and 0.47 and 0.27; Tumor vol. [3]: 0.27 and 0.22 and 0.13 and 0.34 and 0.18 and 0.19 and 0.37 and 0.17; Tumor vol. Average (Celecoxib/40 ppm, Day 31 Apr. 2, 2001, group average): 0.48; Paw volume, paw [4]: 0.7 and 0.48 (2×) and 0.25 and 0.75 and 0.44 and 0.38 and 0.89; Tumor vol. [4]: 0.60 and 0.38 (2×) and 0.18 and 0.55 and 0.34 and 0.28 and 0.79; Tumor vol. Average (Celecoxib/40 ppm, Day 31 Mar. 30, 2001, group average): 0.40; Paw volume, paw [5]: 0.63 and 0.51 and 0.27 and 0.72 and 0.30 and 0.39 and 0.71 and 0.41; Tumor vol. [5]: 0.53 and 0.41 and 0.17 and 0.82 and 0.29 and 0.20 and 0.61 and 0.31; Paw volume, paw (Celecoxib/160 ppm, Day 14 Mar. 13, 2001): 0.19 and 0.26 and 0.22 and 0.3 and 0.23 (3×) and 0.28; Tumor vol. Average (Celecoxib/160 ppm, Day 17 Mar. 16, 2001, group average (row not labelled)): 0.18; Paw volume, paw [6]: 0.24 and 0.25 (2×) and 0.21 and 0.31 and 0.23 and 0.29 and 0.27; Tumor vol. [6]: 0.14 and 0.15 (2×) and 0.11 and 0.21 and 0.13 and 0.19 and 0.17; Tumor vol. Average (Celecoxib/160 ppm, Day 21 Mar. 20, 2001, group average (row not labelled)): 0.15; Paw volume, paw [7]: 0.22 and 0.28 (2×) and 0.24 and 0.32 and 0.3 (2×) and 0.25; Tumor vol. [7]: 0.12 and 0.16 (3×) and 0.14 and 0.22 and 0.20 (2×); Tumor vol. Average (Celecoxib/160 ppm, Day 24 Mar. 23, 2001, group average (row not labelled)): 0.19; Paw volume, paw [8]: 0.22 and 0.28 and 0.24 (2×) and 0.38 and 0.27 and 0.35 and 0.31; Tumor vol. [8]: 0.12 and 0.16 and 0.14 (2×) and 0.28 and 0.17 and 0.26 and 0.21; Tumor vol. Average (Celecoxib/160 ppm, Day 31 Apr. 2, 2001, group average (row not labelled)): 0.29; Paw volume, paw [9]: 0.33 (3×) and 0.57 and 0.29 and 0.59 and 0.4 and 0.28; Tumor vol. [9]: 0.23 (2×) and 0.22 and 0.47 and 0.19 and 0.49 and 0.30 and 0.10; Tumor vol. Average (Celecoxib/160 ppm, Day 31 Mar. 30, 2001, group average (row not labelled)): 0.29; Paw volume, paw [10]: 0.38 and 0.32 and 0.3 and 0.49 and 0.33 and 0.57 and 0.4 and 0.5; Tumor vol. [10]: 0.28 and 0.22 and 0.20 (2×) and 0.39 and 0.23 and 0.47 and 0.30

— US20060252766A1, “Methods using a combination of 3-heteroaryl-2-indolinone and a cyclooxygenase-2 inhibitor for the treatment of neoplasia” (PFIZER INC, priority 2002, published 2006)
